The values that follow come from US20240172747A1, “USE OF SORBIC ACID AND SALTS THEREOF AS A NEMATOCIDE” (GONELLA INVENT SOCIETA' A RESPONSABILITA' LIMITATA […], priority 2021, published 2024).

Values joined by “and” are separate entries in the source; they are usually repeats but may differ in a detail not shown here. Equal entries are not always repeated.

The subject of data set [1] is Meloidogyne incognita eggs. The protocol:
In order to evaluate the efficacy in containing the root-knot nematode Meloidogyne incognita, several in vitro experimental tests were carried out using a sorbic acid solution containing 1 mg/ml of active substance at 98% purity. The average of the tests is reported.
This test concentration was tested on unsegmented and embryonated eggs of M. incognita.
The tests carried out were developed in vitro using double concave glass lenses, by introducing 2 ml of the test solution containing 1 mg/ml of sorbic acid, or sterile water in the case of the control. The incubation took place at a room temperature of 22° C., in the dark. The population of M. incognita was from plants raised in an open field of tomatoes (Solanum lycopersicum).
Unsegmented and embryonated eggs: the eggs were collected from the ovisacs and placed in a double concave glass lens in the presence of the solution to be tested.
Counts of hatched larvae were carried out for 7 days with daily counting and microscopic observation.

In data set [2] the test system is nematodes. Particulars: laboratory test in a jar, after application. The text has this:
A dose ranging from 0.0001% to 0.001% is considered a “sub-lethal” or “nematostatic” dose, and therefore is a dose which may not kill the nematode but inhibits its mobility and pest capacity.

Data set [3] relates to insects or mites. The following applies: laboratory tests.
Data set [4] has as its system larvae of the genus Meloydogine, Heterodera and Globodera. The following applies: laboratory tests.
For data set [5] the following is noted: OECD Test Guideline 402; cited from earlier work.
For data set [6] the following is noted: OECD Test Guideline 403; cited from earlier work.
The conditions of data set [7]: 25° C.; cited from earlier work.
For data set [8], the system named is Meloidogyne J2 larvae. Put plainly: Motility/mortality test on Meloidogyne J2 larvae in suspension. The following applies: single replicates; for READING % IMMOBILE J2 @ 2 H: 2 h exposure; for % DEAD J2 @ 24 H: 24 h exposure. Type of data set: in vivo. The protocol: Extraction of root-knot nematodes taken from soil cultivated with basil (Ocimum basilicum) with strong infestation (J2 larvae) from about 500 cc of soil by means of a wool-paper filter (EPPO Bulletin 13,2013) and concentration in distilled water.
The Tests were established by adding an amount of stock solution to one ml of nematode suspension, so as to obtain the final established concentrations.
Nematodes motility parameters were evaluated after 2 h and after 24 h exposure of the J2 larvae to the nematocidal substance.
In the first test, the count was carried out by microscopic observation of immobile nematodes after 2 hours exposure to the product, to evaluate a possible […] effect of the substance. In the second test, the count was carried out by microscopic observation of the nematodes considered dead with strong signs of tissue degeneration (thickening and blistering in the nematode body accompanied by the final folding of the body at right angle).

Data set [9] deals with M. incognita nematodes. An excerpt:
The trial was followed by a test center (third body) in the Vittoria area (RG) in greenhouses with continuous cycles of courgette (Cucurbita pepo) subjected to strong pressure of M. incognita nematodes. […] First application at day 1 after transplantation (DAT), second application at day 7 DAT, third application at day 21 DAT.
The follow-up was scheduled at day 45 (FIG. 5 and FIG. 6) and day 90 after the first treatment. […] Following this screening trial, new large-scale tests will begin to establish optimal doses, modes and volume of distribution. From Table 3 below, it was possible to evaluate the % of nematode attack with a count of the damage present on the root system (galls).

Where [10] appears, read: TEST 1: Potassium Sorbate (80% purity) 250 μg/ml.
The mark [11] stands for this setting: TEST 2: Potassium Sorbate 500 μg/ml.
[12] abbreviates: TEST 3: Potassium Sorbate 1 mg/ml.

For the compound `C/C=C/C=C/C(=O)O` [Sorbic Acid, 2,4-hexadienoic acid], in data set [1] (1 mg/ml sorbic acid (98% purity), 22° C., dark, Day 1, average of tests), the “hatched larvae, Day 1 DAT” value was found to be 0. For the same compound, the “hatched larvae, Day 2 DAT” value in data set [1] (1 mg/ml sorbic acid, 22° C., dark, Day 2, average of tests) was 0%. Moreover, the “hatched larvae, Day 3 DAT” value in data set [1] (1 mg/ml sorbic acid, 22° C., dark, Day 3, average of tests) came out at 0%. Besides, in [1] (1 mg/ml sorbic acid, 22° C., dark, Day 4, average of tests), the “hatched larvae, Day 4 DAT” value was 0%. Also, the “hatched larvae, Day 5 DAT” value in data set [1] (1 mg/ml sorbic acid, 22° C., dark, Day 5, average of tests) worked out at 0%. In addition, the “hatched larvae, Day 6 DAT” value in data set [1] (1 mg/ml sorbic acid, 22° C., dark, Day 6, average of tests) is 1%. Further, the “hatched larvae, Day 7 DAT” value in data set [1] (1 mg/ml sorbic acid, 22° C., dark, Day 7, average of tests) came out at 3%. In addition, the “efficacy on egg embryogenesis and larvae” value in data set [1] (1 mg/ml sorbic acid, in vitro) is “allowing the inhibition of egg embryogenesis and excellent action on larvae, both free and included in ovisacs”. Moreover, in [2], the “nematostatic effect: number of immature forms” value is given as “a greater number of immature forms”. Also, the “insecticidal or acaricidal activity” value in [3] is “no insecticidal activity (insect kingdom) or acaricidal activity has been found”. In addition, in data set [4], the “effect on larvae of the genus Meloydogine, on Heterodera and Globodera” value (“effect on larvae” below) is “had an effect”. Further, the “Lethal Dose 50: LD50” value in data set [5] is reported as more than 3000 mg/kg. Also, the “Lethal Concentration 50: LC50” value in [6] is 5.1 mg·L. The “partition coefficient: n-octanol/water, log Pow” value in data set [7] is on record as 1.32.
`C/C=C/C=C/C(=O)[O-].[Na+]` [Sodium Sorbate, sodium sorbate]: in data set [4], the “effect on larvae” value was “had an effect”.
With `C/C=C/C=C/C(=O)[O-].C/C=C/C=C/C(=O)[O-].[Ca+2]` [Calcium Sorbate, calcium sorbate], the “effect on larvae” value in [4] was “had an effect”.
As for `C/C=C/C=C/C(=O)[O-].[K+]` [Potassium Sorbate, potassium sorbate], in [8] (setting [10]), the “READING % IMMOBILE J2 @ 2 H” value is 10% and 5% and 7% and 2%; the “% DEAD J2 @ 24 H” value was 15% and 12% and 18% and 10%. For the same compound, in data set [8] (setting [11]), the “READING % IMMOBILE J2 @ 2 H” value is 40% and 38% and 45% and 43%; the “% DEAD J2 @ 24 H” value is 80% and 76% and 75% (2×). Also, in [8] (setting [12]), the “READING % IMMOBILE J2 @ 2 H” value was 75% (2×) and 78% and 80%; the “% DEAD J2 @ 24 H” value was 98% and 99% and 100% and 96%. For the same compound, the “Average weight of a courgette” value in data set [9] (10 kg/ha) amounted to 0.24 kg. In data set [9] (10 kg/ha, mean of 20 plants), the “Average production of a plant, No. courgettes” value is 15.75 and the “Average production of a plant, Weight in kg” value stood at 3.78 kg. For the same compound, in [9] (field application, courgette), the “toxicity or damage of the root system” value is “without leading to toxicity or damage of the root system”. The “effect on larvae” value in [4] is on record as “had an effect”.
Regarding “Abamectin [REFERENCE, reference compound]”, in data set [8] (Reference: Abamectin 90 μg/ml), the “READING % IMMOBILE J2 @ 2 H” value was 100% and 99% (2×) and 98%; the “% DEAD J2 @ 24 H” value is 100% (3×) and 99%.
